# Assay results reported in ChEMBL document CHEMBL4190273, “Mushroom-Derived Indole Alkaloids” (J Nat Prod, 2017).
# *1 amine or outer side, *2 acyl side, *3 side chain or, on linkers, in order; H or OH if unused. Where a SMILES comes first, the peptide text is derived from it. [ ]: non-standard residue; d: D form. X1 = C[C@@H]([C@H](C)OC(=O)CC(C)(C)O)[C@@H](C(=O)[*:2])N(C)[*:1]; X5 = O=C([C@@H]1C[C@@]2(O)c3ccccc3N(O)[C@H]2N1[*:1])[*:2]; X6 = CC(=O)O[C@@H](C)[C@H](C)[C@@H](C(=O)[*:2])N(C)[*:1]; X3 = O=C([C@@H]1C[C@@]2(O)c3ccccc3N[C@H]2N1[*:1])[*:2]; X7 = CC(=O)O[C@@H](C(=O)[*:2])N(C)[*:1]; NMeVal(β-OH) = CN[C@H](C(=O)O)C(C)(C)O; X2 = CC(=O)O[C@H](C(=O)[*:2])N(C)[*:1]; NMeI = CC[C@H](C)[C@H](NC)C(=O)O; X4 = CN([C@H](O)C(=O)[*:2])[*:1]; NMeV = CN[C@H](C(=O)O)C(C)C; Sar = CNCC(=O)O
# Key:
# [1] = Toxicity in ip dosed mouse; format: organism-based; conditions: in vivo
# [2] = system: Mycobacterium tuberculosis; assay: Antimycobacterial activity against Mycobacterium tuberculosis H37Ra; format: functional
# [3] = system: Bacillus subtilis; assay: Antibacterial activity against Bacillus subtilis IFO-12732 assessed as diameter of inhibition zone at 50 ug measured after 24 hrs by agar diffusion method; format: functional; conditions: IFO-12732, 24 h, read-out: DIZ
# [4] = system: Bacillus subtilis; assay: Antibacterial activity against Bacillus subtilis IAM 1609 assessed as diameter of inhibition zone at 50 ug measured after 24 hrs by agar diffusion method; format: functional; conditions: IAM 1609, 24 h, read-out: DIZ
# [5] = system: Staphylococcus aureus; assay: Antibacterial activity against Staphylococcus aureus R-209 assessed as diameter of inhibition zone at 50 ug measured after 24 hrs by agar diffusion method; format: functional; conditions: R-209, 24 h, read-out: DIZ
# [6] = system: Corynebacterium glutamicum; assay: Antibacterial activity against Corynebacterium lilium assessed as diameter of inhibition zone at 50 ug measured after 24 hrs by agar diffusion method; format: functional; conditions: read-out: DIZ
# [7] = system: Mus musculus; assay: Antithrombotic activity in ICR mouse assessed as inhibition of platelet aggregation at 20 mg/kg, po measured after 1 hr relative to control; format: functional
# [8] = system: Meloidogyne incognita; assay: Nematicidal activity against Meloidogyne incognita; format: functional
# [9] = Therapeutic Index, ratio of CC50 for human C8166 cells to EC50 for HIV1 3B infected in human C8166 cells; format: toxicity, cell-based; conditions: HIV-1 3B infected C8166 cells, read-out: Ratio CC50/EC50
# [10] = system: Human immunodeficiency virus 1; assay: Antiviral activity against HIV1 3B infected in human C8166 cells assessed as inhibition of virus-induced syncytia formation after 3 days; format: functional, organism-based; conditions: Human immunodeficiency virus 1, 3B, C8166, 72 h
compound,measurement,setting,value
CC[C@H](C)[C@@H]1NC(=O)CNC(=O)[C@@H]2Cc3c([nH]c4cc(O)ccc34)[S+]([O-])C[C@H](NC(=O)CNC1=O)C(=O)N[C@@H](CC(N)=O)C(=O)N1C[C@H](O)C[C@H]1C(=O)N[C@@H]([C@@H](C)[C@@H](O)CO)C(=O)N2 (some centres undefined),LD50,[1],0.2 to 0.5 mg/kg
CC[C@H](C)[C@@H]1NC(=O)CNC(=O)[C@@H]2Cc3c([nH]c4cc(O)ccc34)[S+]([O-])C[C@H](NC(=O)CNC1=O)C(=O)N[C@@H](CC(N)=O)C(=O)N1C[C@H](O)C[C@H]1C(=O)N[C@@H]([C@@H](C)[C@H](C)O)C(=O)N2 (some centres undefined),LD50,[1],0.2 to 0.5 mg/kg
CC[C@H](C)[C@@H]1NC(=O)CNC(=O)[C@@H]2Cc3c([nH]c4cc(O)ccc34)[S+]([O-])C[C@H](NC(=O)CNC1=O)C(=O)N[C@@H](CC(=O)O)C(=O)N1C[C@H](O)C[C@H]1C(=O)N[C@@H]([C@@H](C)[C@@H](O)CO)C(=O)N2 (some centres undefined),LD50,[1],0.2 to 0.5 mg/kg
C=CC(C)(C)c1[nH]c2c(CC=C(C)C)cc(CC=C(C)C)cc2c1C[C@H]1NC(=O)[C@@H](C)NC1=O,MIC,[2],170 µM
CC[C@@](C)(NC(=O)C(C)(C)NC(=O)[C@@H](NC(=O)[C@H](Cc1c[nH]c2ccccc12)NC(C)=O)C(C)C)C(=O)N[C@@H](C)C(=O)N[C@@H](CCC(N)=O)C(=O)N[C@@H](C)C(=O)NC(C)(C)C(=O)N[C@@H](CO)C(=O)NC(C)(C)C(=O)N[C@@H](C)C(=O)N[C@@H](CC(C)C)C(=O)NC(C)(C)C(=O)N[C@@H](CCC(N)=O)C(=O)N[C@H](CO)CC(C)C,zone of inhibition at 50 µg/disc,[3],13 to 18 mm
same,zone of inhibition at 50 µg/disc,[4],13 to 18 mm
same,zone of inhibition at 50 µg/disc,[5],13 to 18 mm
same,zone of inhibition at 50 µg/disc,[6],13 to 18 mm
N[C@@H](Cc1c[nH]c2ccccc12)C(=O)NCC(=O)N[C@@H](CS)C(=O)O (H-Trp-Gly-Cys-OH),inhibition in vivo at 20 mg/kg,[7],83.3%
"CC[C@H](C)[C@@H]1NC(=O)[C@H](C(C)C)N(C)C(=O)[C@@H]2C[C@@]3(O)c4ccccc4N(O)[C@H]3N2C(=O)CN(C)C(=O)[C@H]([C@@H](C)CC)N(C)C(=O)[C@H](C(C)C)NC(=O)CN(C)C(=O)[C@H]([C@@H](C)CC)N(C)C(=O)[C@H](C(C)(C)O)N(C)C(=O)CN(C)C(=O)[C@H](C(C)C)N(C)C(=O)[C@H](C(C)C)N(C)C1=O (HELM PEPTIDE1{I.[meV].[meV].[Sar].[CN([C@H](C(=O)[*:2])C(C)(C)O)[*:1]].[meI].[Sar].V.[meI].[Sar].[O=C([C@@H]1C[C@@]2(O)c3ccccc3N(O)[C@H]2N1[*:1])[*:2]].[meV]}$PEPTIDE1,PEPTIDE1,1:R1-12:R2$$$V2.0)",LD90,[8],2 to 5 µg/mL
"CC[C@H](C)[C@@H]1NC(=O)[C@H](C(C)C)N(C)C(=O)[C@@H]2C[C@@]3(O)c4ccccc4N[C@H]3N2C(=O)CN(C)C(=O)[C@H]([C@@H](C)CC)N(C)C(=O)[C@H](C(C)C)NC(=O)CN(C)C(=O)[C@H]([C@@H](C)CC)N(C)C(=O)[C@H](C(C)(C)O)N(C)C(=O)CN(C)C(=O)[C@H](C(C)C)N(C)C(=O)[C@H](C(C)C)N(C)C1=O (HELM PEPTIDE1{I.[meV].[meV].[Sar].[CN([C@H](C(=O)[*:2])C(C)(C)O)[*:1]].[meI].[Sar].V.[meI].[Sar].[O=C([C@@H]1C[C@@]2(O)c3ccccc3N[C@H]2N1[*:1])[*:2]].[meV]}$PEPTIDE1,PEPTIDE1,1:R1-12:R2$$$V2.0)",LD90,[8],2 to 5 µg/mL
"CC[C@H](C)[C@@H]1NC(=O)[C@H](C(C)C)N(C)C(=O)[C@H](Cc2c[nH]c3ccccc23)NC(=O)CN(C)C(=O)[C@H]([C@@H](C)CC)N(C)C(=O)[C@H](C(C)C)NC(=O)CN(C)C(=O)[C@H]([C@@H](C)CC)N(C)C(=O)[C@H](C(C)C)N(C)C(=O)CN(C)C(=O)[C@H](C(C)C)N(C)C(=O)[C@H](C(C)C)N(C)C1=O (HELM PEPTIDE1{I.[meV].[meV].[Sar].[meV].[meI].[Sar].V.[meI].[Sar].W.[meV]}$PEPTIDE1,PEPTIDE1,1:R1-12:R2$$$V2.0)",LD90,[8],2 to 5 µg/mL
CC(=O)N[C@@H](Cc1c[nH]c2ccccc12)C(=O)N[C@H](C(=O)NC(C)(C)C(=O)NC(C)(C)C(=O)N[C@@H](C)C(=O)N[C@@H](CCC(N)=O)C(=O)N[C@@H](C)C(=O)NC(C)(C)C(=O)N[C@@H](CO)C(=O)NC(C)(C)C(=O)N[C@@H](C)C(=O)N[C@@H](CC(C)C)C(=O)NC(C)(C)C(=O)N[C@@H](CCC(N)=O)C(=O)N[C@H](CO)CC(C)C)C(C)C (HELM PEPTIDE1{[ac].W.V.[Aib].[Aib].A.Q.A.[Aib].S.[Aib].A.L.[Aib].Q.[CC(C)C[C@@H](CO)N[*:1]]}$$$$V2.0),zone of inhibition at 50 µg/disc,[3],13 to 18 mm
same,zone of inhibition at 50 µg/disc,[4],13 to 18 mm
same,zone of inhibition at 50 µg/disc,[5],13 to 18 mm
same,zone of inhibition at 50 µg/disc,[6],13 to 18 mm
CC[C@H](C)[C@@H]1NC(=O)[C@H](C(C)C)N(C)C(=O)[C@@H]2C[C@@]3(O)c4ccccc4N(O)[C@H]3N2C(=O)CN(C)C(=O)[C@H]([C@@H](C)CC)N(C)C(=O)[C@H](C(C)C)NC(=O)[C@@H](O)N(C)C(=O)[C@H]([C@@H](C)CC)N(C)C(=O)[C@H](C(C)(C)O)N(C)C(=O)CN(C)C(=O)[C@H](C(C)C)N(C)C(=O)[C@H](C(C)C)N(C)C1=O (cyclo(I[NMeV][NMeV][Sar][NMeVal(β-OH)][NMeI][X4]V[NMeI][Sar][X5][NMeV])),LD90,[8],2 to 5 µg/mL
CC[C@H](C)[C@@H]1NC(=O)[C@H](C(C)C)N(C)C(=O)[C@@H]2C[C@@]3(O)c4ccccc4N[C@H]3N2C(=O)CN(C)C(=O)[C@H]([C@@H](C)CC)N(C)C(=O)[C@H](C(C)C)NC(=O)[C@@H](OC(C)=O)N(C)C(=O)[C@H]([C@@H](C)[C@H](C)OC(=O)CC(C)(C)O)N(C)C(=O)[C@H](C(C)(C)O)N(C)C(=O)CN(C)C(=O)[C@H](C(C)C)N(C)C(=O)[C@H](C(C)C)N(C)C1=O (cyclo(I[NMeV][NMeV][Sar][NMeVal(β-OH)][X1][X2]V[NMeI][Sar][X3][NMeV])),LD90,[8],2 to 5 µg/mL
CC[C@H](C)[C@@H]1NC(=O)[C@H](C(C)C)N(C)C(=O)[C@@H]2C[C@@]3(O)c4ccccc4N(O)[C@H]3N2C(=O)CN(C)C(=O)[C@H]([C@@H](C)CC)N(C)C(=O)[C@H](C(C)C)NC(=O)[C@@H](OC(C)=O)N(C)C(=O)[C@H]([C@@H](C)[C@H](C)OC(=O)CC(C)(C)O)N(C)C(=O)[C@H](C(C)(C)O)N(C)C(=O)CN(C)C(=O)[C@H](C(C)C)N(C)C(=O)[C@H](C(C)C)N(C)C1=O (cyclo(I[NMeV][NMeV][Sar][NMeVal(β-OH)][X1][X2]V[NMeI][Sar][X5][NMeV])),LD90,[8],2 to 5 µg/mL
CC[C@H](C)[C@@H]1NC(=O)[C@H](C(C)C)N(C)C(=O)[C@@H]2C[C@@]3(O)c4ccccc4N[C@H]3N2C(=O)CN(C)C(=O)[C@H]([C@@H](C)CC)N(C)C(=O)[C@H](C(C)C)NC(=O)[C@@H](O)N(C)C(=O)[C@H]([C@@H](C)[C@H](C)OC(=O)CC(C)(C)O)N(C)C(=O)[C@H](C(C)(C)O)N(C)C(=O)CN(C)C(=O)[C@H](C(C)C)N(C)C(=O)[C@H](C(C)C)N(C)C1=O (cyclo(I[NMeV][NMeV][Sar][NMeVal(β-OH)][X1][X4]V[NMeI][Sar][X3][NMeV])),LD90,[8],2 to 5 µg/mL
CC[C@H](C)[C@@H]1NC(=O)[C@H](C(C)C)N(C)C(=O)[C@@H]2C[C@@]3(O)c4ccccc4N(O)[C@H]3N2C(=O)CN(C)C(=O)[C@H]([C@@H](C)CC)N(C)C(=O)[C@H](C(C)C)NC(=O)[C@@H](OC(C)=O)N(C)C(=O)[C@H]([C@@H](C)[C@H](C)OC(C)=O)N(C)C(=O)[C@H](C(C)(C)O)N(C)C(=O)CN(C)C(=O)[C@H](C(C)C)N(C)C(=O)[C@H](C(C)C)N(C)C1=O (cyclo(I[NMeV][NMeV][Sar][NMeVal(β-OH)][X6][X2]V[NMeI][Sar][X5][NMeV])),LD90,[8],2 to 5 µg/mL
CC[C@H](C)[C@@H]1NC(=O)[C@H](C(C)C)N(C)C(=O)[C@@H]2C[C@@]3(O)c4ccccc4N[C@H]3N2C(=O)CN(C)C(=O)[C@H]([C@@H](C)CC)N(C)C(=O)[C@H](C(C)C)NC(=O)[C@H](OC(C)=O)N(C)C(=O)[C@H]([C@@H](C)[C@H](C)OC(C)=O)N(C)C(=O)[C@H](C(C)(C)O)N(C)C(=O)CN(C)C(=O)[C@H](C(C)C)N(C)C(=O)[C@H](C(C)C)N(C)C1=O (cyclo(I[NMeV][NMeV][Sar][NMeVal(β-OH)][X6][X7]V[NMeI][Sar][X3][NMeV])),LD90,[8],2 to 5 µg/mL
O=C(O)c1cc2c([nH]c3ccccc32)c(-c2ccc(CO)o2)n1 [FLAZINE],selectivity ratio,[9],12.1
same,EC50,[10],2360 nM
